# Measurements taken from publication PMC2858449 (Journal of immunology (Baltimore, Md. : 1950), 2009).
# Where two headings read alike, the source gives them in different places.
# Experiments:
# [1] = test system: CD8^+ T cells; assay: Intracellular cytokine staining for IFN-γ, IL-2 and TNF-α; type: cell-based, BALB/c mice; details: HIV-1BaL Env-immunized mice (DNA-primed/rAd-boosted); peptide stimulation
# [2] = test system: CD8^+ T cells; type: cell-based, BALB/c mice; details: intracellular IFN-γ
sequence,measurement,setting,value
IGPGRAFYA [PA9],"proportion of triple-positive (IFN-γ, IL-2, TNF-α) CD8^+ T cells",[1],46%
IGPGRAFYTT [PT10],recall response to peptide (in words),[2]; mice immunized with the HIV-1IIIB vaccine,failed to respond
"RGPGRAFVTI [P18I10, reference compound]",recall response to peptide (in words),[2]; mice primed with HIV-1BaL DNA and boosted with rAd,did not respond
